Laboratory results reported in patent publication US10618890B2, “Benzimidazole sulfonamide derivatives as inverse agonists of retinoid-related orphan receptor gamma (ROR gamma (T))” (GALDERMA RESEARCH & DEVELOPMENT, priority 2014, dated 2020).
Read-outs that look alike come from different tables or passages of the source.

Legend:
hRORg = target: T1, hRORg (Homo sapiens, UniProt P51449); test: GAL4-RORγ transactivation (luciferase reporter, HG5LN HeLa line); assay type: cell-based; conditions: HG5LN cells, 18 hours incubation, luciferase luminescence
T1 construct: expressed in transfected cells; host or cells: HG5LN (HeLa line with a GAL4-driven luciferase reporter)
T1 sequence (P51449 269-508 limits assumed): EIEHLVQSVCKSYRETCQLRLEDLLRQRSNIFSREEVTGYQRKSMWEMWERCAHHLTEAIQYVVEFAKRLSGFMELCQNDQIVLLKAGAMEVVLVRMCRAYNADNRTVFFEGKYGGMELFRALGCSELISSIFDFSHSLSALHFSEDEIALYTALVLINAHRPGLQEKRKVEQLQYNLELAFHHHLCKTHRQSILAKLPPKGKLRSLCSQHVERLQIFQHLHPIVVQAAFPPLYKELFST
Text: GAL4-RORγ Transactivation
The RORγ transactivation model was developed from the line HG5LN, which is a HeLa line that stably expresses a luciferase reporter gene controlled by a pentamer of the GAL4 recognition domain of yeast and of a β-globin promoter. The HG5LN line was stably transfected by the DNA-binding domain (DBD) of GAL4 fused to the ROR gamma ligand-binding domain (LBD). Molecules that inhibit the ROR gamma constitutive activity reduce the luciferase expression, thus leading to a reduction in the emitted luminescence.
The cells are seeded in 384-well plates (5000 cells in 45 μL/well of culture medium containing 10% fetal calf serum) and incubated for 4 hours at 37° C., 5% CO2. 5 μL of the test molecules (compounds described in the tables described above) are then added to each well and the plates are incubated for 18 hours at a temperature of 37° C. under 5% of CO2. 20 μL of luciferase substrate (Promega) are added to each well and the luminescence emitted is read by a microplate reader.
The luminescence units (“RLU”) are normalized by positive controls (“POS” containing a saturated concentration of N-(2,2,2-trifluoroethyl)-N-[4-[2,2,2-trifluoro-1-hydroxy-1-(trifluoromethyl)ethyl]phenyl]benzenesulfonamide) and negative controls (“NEG” containing DMSO): % inhibition=((RLU-NEG)*100)/(POS-NEG). The IC50 values are calculated from a 4-parameter logistic model using the XLFit software (IDBS).

[1] = test system: IL-17A secretion by CD4+ cells; test: IL-17A secretion by CD4+ cells (HTRF); assay type: cell-based; conditions: human CD4+ cells activated with anti-CD3 and anti-CD28, 4 days of incubation, IL-17A by HTRF, read-out: IC50 hCD4/IL17
Method: This model allows measurement of the effect of inhibitors on IL-17A secretion by CD4+ cells. The cells are frozen CD4+ cells (STEMCELL, #70026), isolated from peripheral human blood and activated with anti-CD3 and anti-CD28 antibodies. The amount of IL-17A secreted is measured by the TR-FRET (kit HTRF® Human Interleukin 17A (Cisbio, #64H17PEC)) technology.
The cells are rapidly thawed, resuspended in their culture medium (RPMI inactivated 10% FCS) supplemented with soluble anti-CD28 antibodies and seeded (100 000 cells/well) in 96-well plates precoated with anti-CD3 antibodies. The cells are then treated with the ranges of inhibitors to be tested (from 1000 nM to 0.05 nM, 0.1% DMSO). After 4 days of incubation, the HTRF signal is measured using a microplate reader (excitation=337 nm, λemission=620/665 nm). The ratios obtained (665/620) are normalized relative to the positive control (cells activated with anti-CD3 and anti-CD28, 0.1% DMSO). The IC50 values are calculated from a 4-parameter logistic model using the XLFit software (IDBS).

Compound | IC50 (hRORg) | IC50 ([1]; Homo sapiens, 96 h) | IC50 [1]
CCc1ccc(N(CC(C)C)S(=O)(=O)c2ccc3c(c2)n(CC2CCOCC2)c(=O)n3C)cc1 [Compound 1, 1-methyl-2-oxo-3-(tetrahydropyran-4-ylmethyl)-2,3-dihydro-1H-benzimidazole-5-sulfonic acid (4-ethylphenyl)isobutylamide] | > 1000 nM |  | 
CCc1ccc(N(CC(C)C)S(=O)(=O)c2ccc3c(c2)[nH]c(=O)n3CC2CCOCC2)cc1 [Compound 2, 2-oxo-1-(tetrahydropyran-4-ylmethyl)-2,3-dihydro-1H-benzimidazole-5-sulfonic acid (4-ethylphenyl)isobutylamide] | < 100 nM | < 100 nM | 
CCc1ccc(N(CC(C)C)S(=O)(=O)c2ccc3[nH]c(=O)n(CC4CCOCC4)c3c2)cc1 [Compound 3, 2-oxo-3-(tetrahydropyran-4-ylmethyl)-2,3-dihydro-1H-benzimidazole-5-sulfonic acid (4-ethylphenyl)isobutylamide] | 100 to 1000 nM | < 100 nM | 
CCc1ccc(N(CC(C)C)S(=O)(=O)c2ccc3c(c2)[nH]c(=O)n3CC2(C)CCOCC2)cc1 [Compound 4, 1-(4-methyltetrahydropyran-4-ylmethyl)-2-oxo-2,3-dihydro-1H-benzimidazole-5-sulfonic acid (4-ethylphenyl)isobutylamide] | < 100 nM | < 100 nM | 
CCc1ccc(N(CC(C)C)S(=O)(=O)c2ccc3c(c2)[nH]c(=O)n3CC2(F)CCOCC2)cc1 [Compound 5, 1-(4-fluorotetrahydropyran-4-ylmethyl)-2-oxo-2,3-dihydro-1H-benzimidazole-5-sulfonic acid (4-ethylphenyl)isobutylamide] | < 100 nM | < 100 nM | 
CCc1ccc(N(CC(C)C)S(=O)(=O)c2ccc3c(c2)[nH]c(=O)n3C[C@H]2[C@@H]3COC[C@@H]32)cc1 [Compound 6, 1-[(1R,5S,6S)-1-(3-oxabicyclo[3.1.0]hex-6-yl)methyl]-2-oxo-2,3-dihydro-1H-benzimidazole-5-sulfonic acid (4-ethylphenyl)isobutylamide] | < 100 nM |  | 
CCc1ccc(N(CC(C)C)S(=O)(=O)c2ccc3c(c2)[nH]c(=O)n3CC2COC2)cc1 [Compound 7, 1-oxetan-3-ylmethyl-2-oxo-2,3-dihydro-1H-benzimidazole-5-sulfonic acid (4-ethylphenyl)isobutylamide] | < 100 nM | < 100 nM | 
CCc1ccc(N(CC(C)C)S(=O)(=O)c2ccc3c(c2)[nH]c(=O)n3CC2COC(=O)O2)cc1 (stereo not shown) [Compound 8, 2-oxo-1-(2-oxo[1,3]dioxolan-4-ylmethyl)-2,3-dihydro-1H-benzimidazole-5-sulfonic acid (4-ethylphenyl)isobutylamide] | < 100 nM |  | 
CCc1ccc(N(CC(C)C)S(=O)(=O)c2ccc3c(c2)[nH]c(=O)n3CC2CNC(=O)O2)cc1 (stereo not shown) [Compound 9, 2-oxo-1-(2-oxooxazolidin-5-ylmethyl)-2,3-dihydro-1H-benzimidazole-5-sulfonic acid (4-ethylphenyl)isobutylamide] | > 1000 nM |  | 
CCc1ccc(N(CC(C)C)S(=O)(=O)c2ccc3c(c2)[nH]c(=O)n3Cc2ccncc2)cc1 [Compound 10, 2-oxo-1-pyridin-4-ylmethyl-2,3-dihydro-1H-benzimidazole-5-sulfonic acid (4-ethylphenyl)isobutylamide] | 100 to 1000 nM | < 100 nM | 
CCc1ccc(N(CC(C)C)S(=O)(=O)c2ccc3c(c2)[nH]c(=O)n3C2CCOCC2)cc1 [Compound 11, 2-oxo-1-(tetrahydropyran-4-yl)-2,3-dihydro-1H-benzimidazole-5-sulfonic acid (4-ethylphenyl)isobutylamide] | > 1000 nM |  | 
CCc1ccc(N(CC(C)C)S(=O)(=O)c2ccc3c(c2)[nH]c(=O)n3C2CCN(C(=O)OC(C)(C)C)CC2)cc1 [Compound 12, tert butyl ester of 4-{5-[(4-ethylphenyl)isobutylsulfamoyl]-2-oxo-2,3-dihydrobenzimidazol-1-yl}piperidine-1-carboxylic acid] | > 1000 nM |  | 
CCc1ccc(N(CC(C)C)S(=O)(=O)c2ccc3c(c2)[nH]c(=O)n3C2CCNCC2)cc1 [Compound 13, 2-oxo-1-piperidin-4-yl-2,3-dihydro-1H-benzimidazole-5-sulfonic acid (4-ethylphenyl)isobutylamide] | > 1000 nM |  | 
CCc1ccc(N(CC(C)C)S(=O)(=O)c2ccc3c(c2)[nH]c(=O)n3C2CCN(S(C)(=O)=O)CC2)cc1 [Compound 14, 1-(1-methanesulfonylpiperidin-4-yl)-2-oxo-2,3-dihydro-1H-benzimidazole-5-sulfonic acid (4-ethylphenyl)isobutylamide] | > 1000 nM |  | 
CCc1ccc(N(C2CCCC2)S(=O)(=O)c2ccc3c(c2)[nH]c(=O)n3CC2CCOCC2)cc1 [Compound 15, 2-oxo-1-(tetrahydropyran-4-ylmethyl)-2,3-dihydro-1H-benzimidazole-5-sulfonic acid (4-ethylphenyl)cyclopentylamide] | < 100 nM | < 100 nM | 
CCc1ccc(N(C(CC)CC)S(=O)(=O)c2ccc3c(c2)[nH]c(=O)n3CC2CCOCC2)cc1 [Compound 16, 2-oxo-1-(tetrahydropyran-4-ylmethyl)-2,3-dihydro-1H-benzimidazole-5-sulfonic acid (4-ethylphenyl)(1-ethylpropyl)amide] | < 100 nM | < 100 nM | 
Cc1ccc(N(CC(C)C)S(=O)(=O)c2ccc3c(c2)[nH]c(=O)n3CC2CCOCC2)c(C)c1 [Compound 17, 2-oxo-1-(tetrahydropyran-4-ylmethyl)-2,3-dihydro-1H-benzimidazole-5-sulfonic acid (2,4-dimethylphenyl)isobutylamide] | < 100 nM | < 100 nM | 
Cc1ccc(N(C2CCCC2)S(=O)(=O)c2ccc3c(c2)[nH]c(=O)n3CC2CCOCC2)c(C)c1 [Compound 18, 2-oxo-1-(tetrahydropyran-4-ylmethyl)-2,3-dihydro-1H-benzimidazole-5-sulfonic acid cyclopentyl(2,4-dimethylphenyl)amide] | < 100 nM | < 100 nM | 
CCC(CC)N(c1ccc(C)cc1C)S(=O)(=O)c1ccc2c(c1)[nH]c(=O)n2CC1CCOCC1 [Compound 19, 2-oxo-1-(tetrahydropyran-4-ylmethyl)-2,3-dihydro-1H-benzimidazole-5-sulfonic acid (2,4-dimethylphenyl)(1-ethylpropyl)amide] | < 100 nM | < 100 nM | 
CCc1ccc(N(CC(C)C)S(=O)(=O)c2ccc3c(c2)[nH]c(=O)n3CC2CCS(=O)(=O)CC2)cc1 [Compound 20, 1-(1,1-dioxohexahydro-1λ^6-thiopyran-4-ylmethyl)-2-oxo-2,3-dihydro-1H-benzimidazole-5-sulfonic acid (4-ethylphenyl)isobutylamide] | < 100 nM | < 100 nM | 
CCc1ccc(N(CC(C)C)S(=O)(=O)c2ccc3[nH]c(=O)n(CC4CCOCC4)c3c2)cc1 [Compound 21, 2-oxo-3-(tetrahydropyran-4-ylmethyl)-2,3-dihydro-1H-benzimidazole-5-sulfonic acid (4-ethylphenyl)isobutylamide] | 100 to 1000 nM |  | 100 to 1000 nM
